Columns and labels:
[1] = system: MCF-7 breast cancer cell lines; assay: MTT assay, CGEN-CL1 and/or paclitaxel on MCF-7 cells; format: cell-based
Experimental: (§1) 20 μl of MTT (3-(4,5-Dimethyl-2-thiazolyl)-2,5-diphenyl-2H-tetrazolium bromide) solution (Sigma Cat#M5655, lot#085k5322, 1 gr was dissolved in 200 ml H2O and filtered, giving a final concentration of 5 mg/ml) was added to each well and incubated for 4 hours at 37° C. after which the medium was vacuumed and 100 μl of DMSO was added to each well. Absorbance was measured in an ELISA reader at 492 nm.
(§2) A549, PC3 and MCF7 cells were seeded at 6000, 8000 and 10,000 cells per well respectively in 150 μl of media (DMEM medium+5% FBS) in 96 well plates.
(§3) Paclitaxel (Sigma T7402, Lot. 036k1217, Mw 853.9, 5 mg dissolved in 585 μl DMSO to a stock concentration of 10 mM, stored at −20° C.) and/or CGEN-CL1 (1 mg dissolved in 250 μl of sodium bi-carbonate to a stock concentration of 4 mg/ml) were added to the wells in 25 μl of medium (final volume of 200 μl) as detailed in Table 3. The relative growth was normalized to controls where neither paclitaxel nor CGEN-CL1 was added to wells.
(§4) An MTT assay was performed as described above in Example 2.

[2] = system: lung carcinoma cell line A549; assay: MTT assay, CGEN-CL1 and/or paclitaxel on A549 cells; format: cell-based, human; conditions: single agent
Experimental: as §1, §2, §3, §4

CC(=O)O[C@H]1C(=O)[C@@]2(C)[C@H]([C@H](OC(=O)c3ccccc3)[C@]3(O)C[C@H](OC(=O)[C@H](O)[C@@H](NC(=O)c4ccccc4)c4ccccc4)C(C)=C1C3(C)C)[C@]1(OC(C)=O)CO[C@@H]1C[C@@H]2O [Paclitaxel, reference compound]
Relative Growth ([1]; Paclitaxel 2.25 nM alone): 0.88
Relative Growth ([1]; Paclitaxel 30.00 nM alone): 0.49
maximal effect (inhibition) alone [2]: 50%
